Tests used:
Type in all cases: cell-based
PMN = conditions: for PMN chemotaxis to the agent: MTD 100 μg/ml, mtDNA 10 μg/ml, CpG DNA 10 μg/ml, LPS 1 μg/ml
Excerpt: (§1) PMN isolation (Hauser et al., J. Leukoc. Biol. 69:63-68, 2001; Fekete et al., Shock 16:15-20, 2001), cytosolic calcium studies (Hauer et al., J. Leukoc. Biol. 69:63-68, 2001; Hauser et al., J. Trauma 48:592-598, 2000; Tarlowe et al., J. Immunol. 171:2066-2073, 2003; Grynkiewicz et al., J. Biol. Chem. 260:2440-2450, 1985), IL-8 synthesis measurement by ELISA (Zallen et al., J. Trauma 46:42-48, 1999), cell signaling by Western blots (Zhang et al., Life Sci. 77:3068-3077, 2005), transwell chemotaxis (Tarlowe et al., J. Immunol. 171:2066-2073, 2003), and video-microscopy chemotaxis assays (Chen et al., Science 314:1792-1795, 2006) were performed as previously described.
Time-lapse video-microscopic chemotaxis was assayed as described previously (Chen et al., Science 314:1792-1795, 2006). Cells were exposed to a chemoattractant gradient field by slowly releasing MTD (˜100 μg/ml) or fMLF (10 nM) from a micropipette tip placed in proximity to the cells. The migration paths of individual cells were plotted using Adobe Illustrator. […] Experiments were repeated with multiple PMN and MTD isolates.

human PMN [1] = experiment: PMN cytosolic calcium ([Ca2+]i) flux
Excerpt: as §1
Study data was assessed for statistical significance using Student's (unpaired) t-test or Analysis of Variance (ANOVA) where appropriate using a SigmaStat program with post-hoc tests chosen by the computer. [Ca^2+]i transients are reported as the mean change from basal [Ca^2+]i in nanomoles per liter (nM/L). Prolonged [Ca^2+]i fluxes are reported as the area under the curve (AUC) of measured change from basal [Ca^2+]i over the observation period (nM·sec). All data are reported as mean±s.e.m. with significance accepted at p<0.05.

human PMN [2] = experiment: PMN p38 and p44/42 MAPK phosphorylation (Western blot); conditions: chloroquine 10 μg/mL
Method: (§2) PMN degranulation was assessed by measuring MMP-8 release. Human PMNs were suspended in HBSS with 1.8 mM Ca^2+ at 37° C. for 10 minutes while exposed to MTD, mtDNA, or fMLF at indicated concentrations. […] After stimulation, PMN were placed on ice and centrifuged. Supernatants were then assayed for MMP-8 by Western blot. Residual PMN were lysed to assay for MAPKs.
(§3) PMN activation was assessed by measuring MMP-8/9 degranulation and intracellular MAPK phosphorylation. Human PMN were exposed to mtDNA and nDNA at 1-100 μg/mL, 30 minutes at 37° C. After stimulation, PMN were placed on ice and centrifuged (10,000 g at 4° C. for 2 minutes) to obtain supernatants, which were then assayed for MMP-8 and MMP-9 by Western blot as described below. M-PER (Pierce, Rockford, Ill.) was then used to lyse the PMN cell pellets for determination of total and phosphorylated MAPKs by Western blot as described below. Total protein concentration of the lysates was determined by BCA assay.
(§4) Rat liver homogenates and supernatants from human PMN or human PMN lysates were boiled for 5 minutes in SDS sample buffer. Proteins were separated by SDS-PAGE using a […] polyacrylamide gel. Tris-glycine polyacrylamide gradient gels were purchased from Novex (San Diego, Calif.). Separated proteins were transferred to nitrocellulose membrane (0.45 μm pore size; Bio-Rad, Hercules, Calif.). […]

human PMN [3] = conditions: mtDNA 100 μg/mL; preincubation with chloroquine 10 μg/mL
Method: as §2, §3, §4

Compound: IL-8: chemokine used as chemoattractant
- PMN chemotaxis to the agent (PMN; fMLF 10 nM, IL-8 10 nM): shows chemotaxis

Compound: Nc1ncnc2c1ncn2[C@@H]1O[C@H](COP(=O)(O)OP(=O)(O)OP(=O)(O)O)[C@@H](O)[C@H]1O [ATP]
- PMN [Ca2+]i mobilization (human PMN [1]; 1 μM): mobilizes

Compound: CCN(CC)CCCC(C)Nc1ccnc2cc(Cl)ccc12 (stereo not drawn) [chloroquine]
- phosphorylation of p38 MAPK in response to mtDNA, effect of inhibitor (human PMN [2]; mtDNA 100 μg/mL): not inhibited
- p38 MAPK responses to mtDNA, effect of inhibitor (human PMN [2]; mtDNA 1 and 5 μg/mL, 30 minutes, 37° C.): markedly inhibited
- mtDNA-induced release of MMP-8 and -9, effect of inhibitor (human PMN [3]): suppressed

Compound: CSCC[C@H](NC=O)C(=O)N[C@@H](CC(C)C)C(=O)N[C@@H](Cc1ccccc1)C(=O)O [fMLF, N-formyl-methionyl-leucyl-phenylalanine]
- PMN chemotaxis to the agent (PMN; fMLF 10 nM, IL-8 10 nM): shows chemotaxis

Compound: C/C=C/C[C@@H](C)[C@@H](O)[C@H]1C(=O)N[C@@H](CC)C(=O)N(C)CC(=O)N(C)[C@@H](CC(C)C)C(=O)N[C@@H](C(C)C)C(=O)N(C)[C@@H](CC(C)C)C(=O)N[C@@H](C)C(=O)N[C@H](C)C(=O)N(C)[C@@H](CC(C)C)C(=O)N(C)[C@@H](CC(C)C)C(=O)N(C)[C@H](C(C)C)C(=O)N1C [CsH, Cyclosporin H]
- PMN migrating to fMLF, effect of inhibitor (PMN; CsH 1 μM, fMLF 10 nM): significantly inhibits
- PMN chemotaxis to IL-8, effect of inhibitor (PMN; CsH, IL-8 10 nM): no effects
- FPR-induced calcium depletion (human PMN [1]; human PMN): specifically inhibits

Source: patent US20120263736A1, “METHOD FOR PREDICTING AND TREATING A STERILE INFLAMMATION AND DISCRIMINATING BETWEEN STERILE AND INFECTIVE INFLAMMATION” (Beth Israel Deaconess Medical Center, Inc., priority 2009, published 2012)
